The text below walks through data of ChEMBL document CHEMBL1145469, “Lysostaphin in treatment of neonatal Staphylococcus aureus infection” (Antimicrob Agents Chemother, 2007).

The test system of one series is Rattus norvegicus. Kind of series: Drug level in rat serum at 25 mg/kg, im. The series is classed as ADME, organism-based. More on the design: dose 25 mg/kg, route intramuscular. Particulars: in vivo.
For series [1], the system named is Serum. The series can be described thus: Drug level in Staphylococcus aureus infected Wistar rat pups serum at 50 mg/kg, ip. The series is classed as ADME, organism-based. The arrangement: dose 50 mg/kg, route intraperitoneal. Particulars: in vivo.
The subject of a further series is Staphylococcus aureus. Kind of series: Antibacterial activity against methicillin-sensitive Staphylococcus aureus. The series is classed as functional.
Series [2] can be described thus: Drug level in rat serum at 30 mg/kg, sc after 1 hr. The series is classed as ADME, organism-based. More on the design: dose 30 mg/kg, route subcutaneous. To be noted: read-out: Drug uptake.
Series [3] in a line: Drug level in rat serum at 100 mg/kg, iv after 0.5 hr. The series is classed as ADME, organism-based. The arrangement: dose 100 mg/kg, route intravenous. Particulars: read-out: Drug uptake.
Series [4] is described as follows: Drug level in rat serum at 100 mg/kg, iv after 2 hrs. The series is classed as ADME, organism-based. The arrangement: dose 100 mg/kg, route intravenous. To be noted: read-out: Drug uptake.
Series [5] deals with Serum. Kind of series: Drug level in Staphylococcus aureus infected Wistar rat pups serum at 15 mg/kg, ip. The series is classed as ADME, organism-based. The arrangement: dose 15 mg/kg, route intraperitoneal. Particulars: in vivo.

Structures are written as SMILES. In brackets after ≈: the same amount, converted by molar mass.

Turning to `CCOc1ccc2ccccc2c1C(=O)N[C@@H]1C(=O)N2[C@@H]1SC(C)(C)[C@@H]2C(=O)O` [NAFCILLIN], in the series with Rattus norvegicus, the Drug uptake was 20.6 µg/mL.

As usually defined, the MBC is the smallest concentration meeting the test's criterion for killing. Read a high MBC as weaker bactericidal potency. A word on the MIC: it is the lowest concentration found to suppress growth. The low end stands for a more susceptible organism, the high end for a less susceptible organism. Consider `Cc1onc(-c2ccccc2)c1C(=O)N[C@@H]1C(=O)N2[C@@H]1SC(C)(C)[C@@H]2C(=O)O` [OXACILLIN], for which the Drug uptake in the series with Serum [1] was above 125 µg/mL. Besides, in the series with Staphylococcus aureus, the MBC turned out to be 0.25 µg/mL (≈ 0.623 µM) and the minimal inhibitory concentration (MIC) came out at 0.125 µg/mL (≈ 0.311 µM).

Take `CN[C@H](CC(C)C)C(=O)N[C@H]1C(=O)N[C@@H](CC(N)=O)C(=O)N[C@H]2C(=O)N[C@H]3C(=O)N[C@H](C(=O)N[C@H](C(=O)O)c4cc(O)cc(O)c4-c4cc3ccc4O)[C@H](O)c3ccc(c(Cl)c3)Oc3cc2cc(c3O[C@@H]2O[C@H](CO)[C@@H](O)[C@H](O)[C@H]2O[C@H]2C[C@](C)(N)[C@H](O)[C@H](C)O2)Oc2ccc(cc2Cl)[C@H]1O` [VANCOMYCIN]: the concentration at 1 h in series [2] stood at 36000 ng/mL. Further, the concentration at 0.5 h in series [3] was found to be 180000 ng/mL. Further, in series [4], the concentration at 2 h came to 45000 ng/mL. The compound also registered an MBC with Staphylococcus aureus of 0.25 µg/mL (≈ 0.173 µM). In addition, in the series on Serum [5], the Drug uptake was above 125 µg/mL.
